Results reported in article PMC7179167 (Molecules, 2020).
Values after ≈ are worked out from the molar mass of the structure shown. Read-outs that look alike come from different tables or passages of the source.

Assays:
[1] = system: P. aeruginosa (ATCC 27853); test: Disk diffusion antimicrobial test, P. aeruginosa; type: cell-based, Pseudomonas areuginosa; conditions: Pseudomonas aeruginosa, ATCC27853, Gram-negative, 20 mg per disc (title), concentration 20 µg (footnote)
Protocol: The newly synthesized compounds were chosen to be evaluated in vitro towards a variety of pathogenic microorganisms; Gram-positive bacteria: S. aureus (ATCC 6538) and B. subtilis (ATCC 6633); Gram-negative bacteria: P. areuginosa (ATCC 27853) and E. coli (DSMZ 1058); yeast: C. albicans (ATCC 10231) and S. cerevisiae (ATCC 9080) and fungi: A. niger (NRRL A-326) using the disk diffusion method at a single dose of 20 µl. The results are shown in Table 1 as the growth inhibition zone (mm).
The antimicrobial activity of target compounds were evaluated to be in vitro against a variety of pathogenic microorganisms, namely Staphylococcus aureus (ATCC 6538), Bacillus subtilis (ATCC 6633) (Gram-positive bacteria), Pseudomonas areuginosa (ATCC 27853), Escherichia coli (DSMZ 1058) (Gram-negative bacteria), Candida albicans (ATCC 10231), Saccharomyces cerevisiae (ATCC 9080) (Yeast) and Aspergillus niger (NRRL A-326) (Fungi) using the disk diffusion method at a single dose of 20 µg. The microorganisms were served and obtained from the Microbial Biotechnology Department, National Research Center, Giza, Egypt. Amphotericin, amoxicillin and ciprofloxacin were used as reference drugs (Oxoid™ Disks). The tested compounds 11a–c, 12a–c, 13a–i, 14a–i and 15a,b were dissolved in dimethylsulphoxide (DMSO) at a concentration of 1 mg/mL. Aliquots of 20 μl were soaked on filter paper discs (6 mm) and dried at room temperature under sterilized conditions. The paper discs were placed on inoculated agar plats and then incubated for 24 h at 37 °C for bacterial strains and after 48–72 h incubation at 30 °C for fungi. Both bacterial and yeast strains were grown on nutrient agar medium (g/l): beef extract, 3; peptone, 10 and agar, 20 at pH of 7.2. The fungal strain was grown on Czapek-Dox medium (g/l): sucrose, 30; NaNO3, 3; MgSO4.7H2O, 0.5l; KCl, 0.5; FeSO4, 0.01; K2HPO4, 1 and agar, 20 at pH of 6.0.

[2] = DPPH free radical scavenging assay; type: biochemical; conditions: concentration of 20µg/l, mean ± SD of three experiments
Procedure, shortened: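 Compound DMSO stock (1 mg/mL) added to fresh DPPH in DMSO (20 mg/L), vortexed 1 min, kept dark for 15–60 min. Absorbance at 517 nm; % scavenging = (A control − A sample)/A control × 100; triplicates averaged. Ascorbic acid served as reference.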

[3] = system: HCT-116 (human colon cancer); test: MTT cytotoxicity assay, HCT-116; type: cell-based; conditions: Homo sapiens; for inhibition at 100 µg/mL: HCT-116, 100 µg/ml, 48 h, read-out: Growth Inhibition (%) HCT-116; for IC50: HCT-116, 48 h, 48 h post-treatment
Protocol: (§3) MCF-7 (human breast cancer), HCT-116 (human colon cancer) and HepG2 (human liver cancer) cell lines were obtained from Karolinska Institute, Stockholm, Sweden. All cells were maintained in RPMI 1640 medium. The media were supplemented with 10% heat-inactivated fetal bovine serum plus 1% antibiotic-antimycoticmixture (10,000 U/mL of potassium penicillin, 10,000 μg/mL of streptomycin sulfate, 25 μg/mL of amphotericin B and 1% of L glutamine (Biowest, USA)). BJ-1 of a human skin fibroblast derived from normal foreskin was obtained from ATCC® CRL-2522™ as a frozen ampoule with about 1 × 10^6 cells per 1 ml volume. BJ-1 was maintained in MEM with 2 mM of L-glutamine and Earle’s salts medium.
(§4) Cell viability was studied using the MTT 3-(4,5-dimethylthiazol-2-yl)-2,5-diphenyl-tetrazolium bromide (Bio Basic Canada Inc. Toronto, Canada) assay [33]. The steps were executed in a sterile laminar air flow cabinet biosafety class II level (Baker, SG403INT; Sanford, ME, USA). All incubations were carried out at 37 °C in a 5% CO2 incubator under a humidified atmosphere of 95% (Sheldon, TC2323; Cornelius, OR, USA). Cells were seeded into 96-well microtiter plastic plates at a concentration of (10^4 cells/well) and allowed to adhere for 24 h. The medium was aspirated and then added to the cells with the test compounds 11a–c, 12a–c, 13a–i, 14a–i and 15a,b at a single dose of 100 μg/mL in DMSO. After incubation of the medium for 48 h, 40 μL of MTT salt (2.5 μg/mL) was added to each well and then incubated for an additional 4 h. To stop the reaction and dissolve any formed formazan crystals, 200 μL of 10% sodium dodecyl sulfate (SDS) were added to each well and incubated overnight at 37 °C. The amount of formazan product was measured at 595 nm with a reference wavelength of 690 nm as a background using a microplate reader (Bio-Rad Laboratories, model 3350, California, USA). For the untreated cells (negative control), the medium was added instead of the tested compounds. […] Dimethylsulfoxide (DMSO) was the vehicle used for dissolution of the testing compound, and its final concentration on the cells was less than 0.2%. At the same dilution, the solvent concentration was the same for all drugs and between the control and drug treatments.

[4] = system: normal skin fibroblast cells (BJ-1); test: MTT cytotoxicity assay, normal skin fibroblast BJ-1; type: cell-based; conditions: Homo sapiens, 48 h, read-out: Growth Inhibition (%) BJ-1
Protocol: as §3, §4

[5] = system: caspase-3; test: Caspase-3 colorimetric assay in MCF-7 cells; type: cell-based, human; conditions: for Caspase-3 Activity %: MCF-7 cells treated at IC50 concentration, control 10.2 ± 2.84, mean ± SD; for Elevation of active caspase-3 protein levels compared to the control: MCF-7 cells, IC50 concentration
Text: (§1) The promising antiproliferative results reported for compounds 11a, 11b, 12a, 12b and 13c against cell lines under study have prompted us to investigate the mechanism of cell death induced by these compounds. Apoptosis induction was examined in both MCF-7 and HCT-116 cancer cells by assaying the level of its key protein markers, namely: proapoptotic (p53, Bcl 2-associated X, Bax and caspases3) and antiapoptotic (B-cell lymphoma-2, Bcl-2). MCF-7 and HCT-116 cells undergoing apoptosis was detected by use of the ELISA technique. Protein marker levels were quantified according to Bradford assay.
(§2) Briefly, cells ([…] and HCT) were seeded at a concentration of 1.2–1.8 × 10^3 cells/well in 6-well plates. After 48-h treatment, the collected cells were lysed and centrifuged at 10,000 rpm for 20 min at 4 °C. The protein concentration was measured in the supernatant by Bradford protein assay. Volume containing […] of total protein was incubated with […] of caspase substrate in […] of the reaction buffer at 37 °C for 1 h in the dark. Caspase-3 activity was determined by a microplate reader at 405 nm using a caspase-3 colorimetric assay kit (Abcam) according to the manufacturer’s instructions. In vitro protein level quantitative measurement of apoptotic marker p53, Bcl-2-associated X (Bax) and antiapoptotic marker B-cell lymphoma-2 (Bcl-2) in cell lysate were assessed by Enzyme-Linked Immunosorbent Assay Simple Step ELISA® (ab199080, ab119506 and ab171571; Abcam) according to the manufacturer’s instructions.

[6] = system: Bcl-2; test: Bcl-2 ELISA in MCF-7 cells; type: cell-based, human; conditions: for Bcl-2 (ng/50 mg Protein): MCF-7 cells treated at IC50 concentration, control 25.13 ± 3.45, mean ± SD; for Reduction of expression level of antiapoptotic protein Bcl-2 compared to the control: MCF-7 cells, IC50 concentration
Text: as §1, §2

[7] = system: p53; test: p53 ELISA in MCF-7 cells; type: cell-based, human; conditions: MCF-7 cells treated at IC50 concentration; control 4.18 ± 0.58; mean ± SD
Text: as §1, §2

[8] = system: p53; test: p53 ELISA in HCT-116 cells; type: cell-based, human; conditions: HCT-116 cells treated at IC50 concentration; control 1.68 ± 0.06; mean ± SD
Text: as §1, §2

[9] = system: Bax; test: Bax ELISA in HCT-116 cells; type: cell-based, human; conditions: HCT-116 cells treated at IC50 concentration; control 118.54 ± 0.83; mean ± SD
Text: as §1, §2

[10] = 15 min, read-out: Scavenging Activity (%) on DPPH radicals at 15 min
[11] = 30 min, read-out: Scavenging Activity (%) on DPPH radicals at 30 min
[12] = 45 min, read-out: Scavenging Activity (%) on DPPH radicals at 45 min
[13] = 60 min, read-out: Scavenging Activity (%) on DPPH radicals at 60 min

Row | SMILES | zone of inhibition at 20 µg/disc [1] [mm] | inhibition [2, 10] [%] | inhibition [2, 11] [%] | inhibition [2, 12] [%] | inhibition [2, 13] [%] | inhibition at 100 µg/mL [3] [%] | IC50 [3] [mg/L] | inhibition at 100 µg/mL [4] [%] | Caspase-3 Activity % [5] [%] | Elevation of active caspase-3 protein levels compared to the control [5] | Bcl-2 (ng/50 mg Protein) [6] [ng/50 mg Protein] | Reduction of expression level of antiapoptotic protein Bcl-2 compared to the control [6] | p53 (Pg/50 mg Protein) [7] [Pg/50 mg Protein] | p53 (pg/50 mg Protein) [8] [pg/50 mg Protein] | Bax (pg/50 mg Protein) [9] [pg/50 mg Protein]
1 | COc1c(C2=NNC3(C2)C(=O)Nc2ccccc23)c(O)cc2occc12 (centres unmarked) [Compound 11a, 5’-(6-Hydroxy-4-methoxy-benzofuran-5-yl)-2’,4’-dihydrospiro(indoline-3,3’-pyrazol)-2-one] | 8 | 6.86 ± 1.17 | 10.3 ± 1.37 | 17.7 ± 1.28 | 26.9 ± 1.56 | 96.2 | 5.7 (≈ 16.3 µM) | 6.2 | 16.67 ± 0.67 | ~ 1.6 folds | 12.3 ± 2.26 | ~ 50% | 14.45 ± 0.82 | 16.2 ± 0.56 | 159.26 ± 0.96
2 | COc1cc2occc2c(OC)c1C1=NNC2(C1)C(=O)Nc1ccccc12 (centres unmarked) [Compound 11b, 5’-(4,6-Dimethoxy-benzofuran-5-yl)-2’,4’-dihydrospiro(indoline-3,3’-pyrazol)-2-one] | 12 | 9.6 ± 1.77 | 14.3 ± 1.52 | 20.4 ± 1.65 | 30.8 ± 2.04 | 94.9 | 16.4 (≈ 45.1 µM) | 10.1 | 16.19 ± 0.79 | ~ 1.6 folds | 16.18 ± 0.78 |  | 5.85 ± 0.75 | 3.25 ± 0.15 | 119.14 ± 1.65
3 | COc1c(C2=NNC3(C2)C(=O)Nc2ccccc23)c(O)c(OC)c2occc12 (centres unmarked) [Compound 12a, 5’-(6-Hydroxy-4,7-dimethoxy-benzofuran-5-yl)-2’,4’-dihydrospiro(indoline-3,3’-pyrazol)-2-one] | 18 | 56.4 ± 1.08 | 67.1 ± 1.45 | 76.9 ± 1.51 | 81.4 ± 1.37 | 96.7 | 5.8 (≈ 15.3 µM) | 9.1 | 14.18 ± 0.74 | ~1.4 folds | 13.09 ± 2.27 | ~52% | 13.31 ± 1.08 | 23.11 ± 1.22 | 124.56 ± 0.95
4 | COc1c(C2=NNC3(C2)C(=O)Nc2ccccc23)c(OC)c2ccoc2c1OC (centres unmarked) [Compound 12b, 5’-(4,6,7-Trimethoxy-benzofuran-5-yl)-2’,4’-dihydrospiro(indoline-3,3’-pyrazol)-2-one] | 24 | 17.3 ± 1.53 | 23.5 ± 1.64 | 30.6 ± 1.49 | 40.6 ± 1.46 | 95.1 | 7.9 (≈ 20.1 µM) | 5 | 47.25 ± 1.89 | ~4.6 folds | 12.87 ± 1.84 | ~51% | 29.58 ± 2.53 | 48.07 ± 1.94 | 191.07 ± 1.95
